{"source": "patent US20100227930A1", "about": "(priority 2009, published 2010)", "origin": "cited, not measured here", "key": {"[1]": {"details": "compared with the 2:1:1 blend of three quaternary ammonium compounds"}, "[2]": {"system": "algae", "details": "duration not given"}, "[3]": {"system": "rainbow trout", "details": "in vivo"}, "[4]": {"system": "Daphnia magna"}, "[5]": {"system": "fish", "details": "in vivo"}, "[6]": {"details": "species not given"}}}
{"smiles": "CCCCCCCCCC[N+](C)(C)CCCCCCCCCC.[Cl-]", "note": "[didecyl dimethyl ammonium chloride]", "values": [{"measurement": "water solubility", "setting": "[1]", "result": "poorer water solubility"}]}
{"smiles": "O=C([O-])CCC(C(=O)[O-])N(CC(=O)[O-])CC(=O)[O-].[Na+].[Na+].[Na+].[Na+]", "note": "(stereo not drawn) [Dissolvine GL, Glutamic acid, N,N Diacetic acid and their Tetrasodium salts]", "values": [{"measurement": "EC50 Algae", "setting": "[2]", "result": "> 100", "unit": "µg/mL"}, {"measurement": "EC50 fish (rainbow trout)", "setting": "[3]", "result": "> 100", "unit": "µg/mL"}, {"measurement": "EC50 Daphnia Magna", "setting": "[4]; duration not given", "result": "> 100", "unit": "µg/mL"}]}
{"smiles": "O=C([O-])CC(NC(CC(=O)[O-])C(=O)[O-])C(=O)[O-].[Na+].[Na+].[Na+].[Na+]", "note": "(stereo not drawn) [IDS, iminodisuccinate tetrasodium salt]", "values": [{"measurement": "EC50 Algae", "setting": "[2]", "result": 94.5, "unit": "µg/mL"}, {"measurement": "acute aquatic toxicity fish", "setting": "[5]", "result": 82.6, "unit": "mg/L"}, {"measurement": "DL50 oral rat acute toxicity", "result": "over 2,000 mg/kg"}, {"measurement": "EC0 Daphnia Magna", "setting": "[4]; in vivo", "result": 84, "unit": "mg/L"}]}
{"smiles": "COC(C)COC(C)CO", "note": "(stereo not drawn) [Dipropylene glycol methyl ether]", "values": [{"measurement": "aquatic acute toxicity", "setting": "[6]", "result": "> 100", "unit": "mg/L"}]}
